Assay results taken from PMC7932537, “Quantitative profiling of protease specificity” (PLoS Computational Biology, 2021).

Each substance was assayed on MMP-2 (assay: Substrate phage display with NGS: relative probability (RP) of P3-P1' tetramer clusters). Conditions: MMP2 - no binning; average relative probability (RP) of the P3-P1' tetramer; redundant tetramers have been averaged out.
Format: biochemical, human
Work on IASL yielded an avg_RP of 32.8949. LAQI gave an avg_RP of 17.7137. With PLPW the avg_RP was 30.0861. For NLAL, the avg_RP was 5.8865. AKHL showed an avg_RP of 9.4662. ANYI was tested, and the avg_RP was 1.6587. For LARL, the avg_RP was 21.3172. With VMRL the avg_RP was 0.4281. YRSM gave an avg_RP of 5.2577. VGHL showed an avg_RP of 31.6783. With YSHL the avg_RP was 14.1084. With AFSL the avg_RP was 10.3321. Work on AWMM yielded an avg_RP of 1.3213. AHHL gave an avg_RP of 16.717. In the case of ANSI, the avg_RP was 0.424. In the case of VHML, the avg_RP was 3.9806. Work on SWPL yielded an avg_RP of 0.4201. For INQL, the avg_RP was 1.5518. Work on AFHL yielded an avg_RP of 8.795. Substance SAYL has an avg_RP of 11.6614. For PVNM, the avg_RP was 30.0312. HQWL was tested, and the avg_RP was 19.2059. Substance YLPL has an avg_RP of 2.3089. Work on GFAL yielded an avg_RP of 0.4341. For ALGL, the avg_RP was 26.3282. Substance YLNL has an avg_RP of 0.3873. In the case of FATL, the avg_RP was 9.1497.

Same assay, conditions: MMP2 - no binning; average relative probability of the P3-P1' tetramer; redundant tetramers have been averaged out
WESL gave an avg_RP of 0.6249. Work on SYAL yielded an avg_RP of 4.7967. FLHW gave an avg_RP of 0.0579. For VSYL, the avg_RP was 20.2936. VFHM gave an avg_RP of 5.168. For WSNL, the avg_RP was 17.9326. PLAS gave an avg_RP of 26.7589. Work on FSEL yielded an avg_RP of 12.1057. Work on AHQL yielded an avg_RP of 4.1004. AGAL was tested, and the avg_RP was 19.769. LYGL gave an avg_RP of 17.2472. Substance TYAL has an avg_RP of 5.848. MLSM gave an avg_RP of 5.2342. Substance VEYL has an avg_RP of 5.3014. With LDWM the avg_RP was 7.0331. For HQNL, the avg_RP was 17.7487. PQSW showed an avg_RP of 25.7009. Work on QLAM yielded an avg_RP of 5.2406. For AMNL, the avg_RP was 16.2852. In the case of ARSL, the avg_RP was 17.186. VAPL showed an avg_RP of 30.036. In the case of VELL, the avg_RP was 0. FRNL showed an avg_RP of 9.8211. VIAL was tested, and the avg_RP was 8.0877. Substance ANYL has an avg_RP of 3.9008. LGML was tested, and the avg_RP was 29.0922. YGHL showed an avg_RP of 11.3746. Work on YANL yielded an avg_RP of 27.7486. With PSSL the avg_RP was 35.4913. GLNL showed an avg_RP of 0.5789. For PAWM, the avg_RP was 34.3571. In the case of VNNL, the avg_RP was 17.6966. PIML showed an avg_RP of 15.4441. With LASL [P3-P1' tetramer cluster] the avg_RP was 31.1996. Work on PSWL yielded an avg_RP of 35.705. For LGTL, the avg_RP was 24.6198. AQYL gave an avg_RP of 7.443. Work on MMQL yielded an avg_RP of 0.816.

Same assay, conditions: MMP2 - no binning; average relative probability of the tetramer; redundant tetramers averaged out
For GSGL, the avg_RP was 1.9698. Substance WRGL has an avg_RP of 23.375. In the case of PVFL, the avg_RP was 21.7568. For PWGM, the avg_RP was 25.1614. PMGL gave an avg_RP of 34.7865. GYAL was tested, and the avg_RP was 0.5867. Work on VFEL yielded an avg_RP of 0.8652. For VFSI, the avg_RP was 0.2237. With VQHL the avg_RP was 22.9738. PLGI was tested, and the avg_RP was 33.936. With VRSI the avg_RP was 11.7832. PAAL [P3-P1' tetramer cluster] was tested, and the avg_RP was 35.8015. With PVNL the avg_RP was 34.508. For VRWY, the avg_RP was 17.3102. VNWM showed an avg_RP of 16.277. In the case of LGYL, the avg_RP was 24.8925. PIGI showed an avg_RP of 31.281. With PYAM the avg_RP was 28.0901. Work on INAL yielded an avg_RP of 12.2423. For SANL, the avg_RP was 23.7816. Work on PSAM yielded an avg_RP of 32.7825. Substance VRHL has an avg_RP of 25.4239. Substance PWHI has an avg_RP of 10.946. In the case of YAGL, the avg_RP was 20.9112. With VWAI the avg_RP was 3.2193. In the case of VKGM, the avg_RP was 15.5854. Substance PHGF has an avg_RP of 21.975. Work on PGKM yielded an avg_RP of 18.9001. Work on PRPV yielded an avg_RP of 29.4989. FGAL showed an avg_RP of 25.0961. Substance MAHL [P3-P1' tetramer cluster] has an avg_RP of 29.5006. For VRAL, the avg_RP was 30.4312. VKWL showed an avg_RP of 19.0036.

Same assay, conditions: tetramer clusters unique to the MMP-2 selectome, MMP-2 RP
For YAAL [P3-P1' tetramer cluster], the relative_probability was 30.40. For MANL [P3-P1' tetramer cluster], the relative_probability was 32.42. With IAAI [P3-P1' tetramer cluster] the relative_probability was 29.40. Work on LASL [P3-P1' tetramer cluster] yielded a relative_probability of 31.20. In the case of MAHL [P3-P1' tetramer cluster], the relative_probability was 29.50.

Same assay, conditions: tetramer probability in MMP2 set / naive library; 200 nM protease, 2 h, 37°C
For PAAL [P3-P1' tetramer cluster], the “relative probability (RP)” value was 35.8015.

Same assay, conditions: tetramer projected onto MMP-2 cleavage sites determined by Prudova et al. (2010)
PAAL [P3-P1' tetramer cluster] was tested, and the “relative probability (RP)” value was 35.8.
